{
  "source": "patent US4361703A",
  "about": "“Para-amino(or nitro)phenyl N-acetylaminothioalkanoates” (priority 1977, dated 1982)",
  "key": {"[1]": {"experiment": "Serum \"free NAPA\" in beagle dogs", "assay_type": "in vivo", "conditions": "oral", "protocol": "(§1) (B)--Investigation of Serum Concentrations in Beagle Dogs\n(§2) 6 Beagle dogs (3 males and 3 females) were dosed once a day (at 08.00 hrs. each day) for 23 days with Compound A, suspended in 1% gum tragacanth, which was administered orally by oesophageal tube, at a rate of either 432 mg/kg (2 dogs, 1 male and 1 female) or 675 mg/kg (4 dogs, 2 male and 2 female). During this period the dogs received their usual food and water until 16.00 hrs. on the day before the test; but from that time until 08.00 hrs. on the day of the test they were given no food, although they received their usual drinking water. The usual dosage of Compound A was however given to the animal at 08.00 hrs. on the day of the test.\n(§3) Without any further feeding, serum samples were then taken from each animal 2, 4 and 6 hours after the oral administration of Compound A, thus at 10.00 hrs., 12.00 hrs. and 14.00 hrs. on the day of the test. After the 6-hour serum sample had been taken, the animals received their usual food for a while; but they were again made to fast for 12 hours from 20.00 hrs. on the day of the test until 08.00 hrs. on the following day, when the last, 24-hour serum sample was taken.\nA direct determination similar to that used in Determination 2 above gave results for \"free NAPA\" as set out in Table IV below: […]"}, "[2]": {"experiment": "Hydrolysis stability in simulated gastric fluid", "assay_type": "physicochemical", "protocol": "(§4) In order first to evaluate the stability of Compound A in the gastro-intestinal tract, simulated gastric and intestinal fluids and other test fluids were prepared as follows:\nPREPARATION OF SIMULATED GASTRIC FLUID\n0.35 gram of sodium chloride, 0.5 gram of glycine and 94 ml of M hydrochloric acid were mixed, and the volume was then made up to 1000 ml with distilled water. The pH of this system was about 1.79.\n(§5) Standard solutions of 1×10^-4 M Compound A in analytical grade methanol (0.01 ml) were prepared, and tested in the simulated gastric and intestinal fluids, in tris buffer alone, in tris buffer with added hog liver esterase and also in serum. The solutions under test were incorporated in 1 ml. of each of the test fluids. A temperature of 30° C. was used for the assays involving the hog liver esterase, whereas a temperature of 37° C. was used for the assays involving the simulated gastric and intestinal fluids and the serum. After this, the mixture was allowed to stand and the supernatant liquid was spotted onto silica t.l.c. plates and developed in 90:10 chloroform/methanol. The mixture was then extracted with 5 mls of chloroform and the chloroform-containing mixture was filtered through phase-separating papers, which allow only the chloroform solution to pass through. The chloroform solution was also spotted onto silica t.l.c. plates and developed in 90:10 chloroform/methanol."}, "[3]": {"experiment": "Serum \"total NAPA\" in beagle dogs", "assay_type": "in vivo", "conditions": "oral, last dose after 23 days", "protocol": "as §1, §2\nas §3, with “taken. […]” for “taken.”"}, "[4]": {"test_system": "yeast-induced hyperthermia", "experiment": "Antipyretic activity, yeast-induced hyperthermia test in rats", "assay_type": "in vivo, male Charles River rats", "conditions": "compared with NAPA, equimolar basis, oral", "protocol": "(D)--Investigation of Antipyretic Activity in Rats\nUsing the conventional procedure for the yeast-induced hyperthermia test, several groups of 10 male Charles River rats were given a subcutaneous injection of dried yeast. Immediately after the injection they were then medicated orally with respectively:\n100 mg/kg of N-acetyl-para-aminophenol (NAPA);\n80 mg/kg of NAPA+43.0 mg/kg of Compound A; and\n60 mg/kg of NAPA+86.0 mg/kg of Compound A.\nIn the mixtures the amount of Compound A, N-acetyl-para-aminophenyl N'-acetyl-D,L-methionate, used was in each case equimolar with the 10%, 20% or 40% reduction in the amount of NAPA, so that all the medications were carried out at a level equivalent to 100 mg/kg of NAPA."}, "[5]": {"experiment": "Hydrolysis stability in simulated intestinal fluid", "assay_type": "physicochemical", "protocol": "as §4\nPREPARATION OF SIMULATED INTESTINAL FLUID\n6.1 grams of monobasic potassium phosphate and 3.9 grams of disodium hydrogen phosphate were dissolved in 1000 ml. of water. The pH of the resulting solution was 6.85.\nas §5"}, "[6]": {"experiment": "Hydrolysis stability in tris buffer", "assay_type": "physicochemical", "protocol": "PREPARATION OF TRIS BUFFER\n0.05 M tris buffer was made by dissolving 6.05 grams of tris-(hydroxymethyl)-methylamine in 1000 ml. of water, and adjusting the pH to 7.2 by the addition of 0.1 M HCl.\nas §5"}},
  "data": [
    {"smiles": "CSCCC(NC(C)=O)C(=O)Oc1ccc(NC(C)=O)cc1", "note": "(racemic) [Compound A, N-acetyl-para-aminophenyl N'-acetyl-D,L-methionate]", "values": [
      {"measurement": "hydrolysis in vivo", "setting": "[1]; 23 days", "result": "easily hydrolyzed"},
      {"measurement": "recovery of \"free NAPA\" in serum, time", "setting": "[1]; last dose after 23 days", "result": "up to 6 hours"},
      {"measurement": "half-life", "setting": "[2]; pH 1.79, simulated gastric fluid, pH about 1.79, 37° C.", "result": 2400, "unit": "min"},
      {"measurement": "rate of hydrolysis", "setting": "[2]; simulated gastric juice, 37° C.", "result": "very slow"},
      {"measurement": "recovery of \"total NAPA\" in serum, time", "setting": "[3]", "result": "up to 24 hours"},
      {"measurement": "antipyretic effect", "setting": "[4]", "result": "virtually identical upon an equimolar basis of comparison with that of the well-tried analgesic NAPA"},
      {"measurement": "half-life", "setting": "[5]; simulated intestinal fluid, pH 6.85, 37° C.", "result": 1890, "unit": "min"},
      {"measurement": "rate of hydrolysis", "setting": "[5]; simulated intestinal juice, 37° C.", "result": "very slow"},
      {"measurement": "half-life", "setting": "[6]; pH 7.2, tris buffer pH 7.2, 30° C.", "result": "~475", "unit": "min"},
      {"measurement": "half-life", "setting": "[6]; pH 7.2, tris buffer pH 7.2, 37° C.", "result": 240, "unit": "min"}
    ]}
  ]
}
